Experimental data as given in paper PMC12010006, “Subnanomolar MAS-related G protein-coupled receptor-X2/B2 antagonists with efficacy in human mast cells and disease models” (Signal Transduction and Targeted Therapy, 2025).
Positions of bridges follow the written chain, without caps; N, C: chain ends. Residues, ends and D or L forms follow the SMILES beside them.

Key:
MRGPRX2 [1] = target: T1, MRGPRX2 (Homo sapiens, UniProt Q96LB1); assay: TRUPATH Gαi1 dissociation assay, LN229 cells expressing MRGPRX2; format: cell-based; design: expressed in transfected cells; host or cells: LN229 human glioblastoma cells; plasmid pLXSN-MRGPRX2 (Addgene #213960); settings: read-out: EC50 of agonist, Gαi1 dissociation
T1 sequence (Q96LB1 1-330): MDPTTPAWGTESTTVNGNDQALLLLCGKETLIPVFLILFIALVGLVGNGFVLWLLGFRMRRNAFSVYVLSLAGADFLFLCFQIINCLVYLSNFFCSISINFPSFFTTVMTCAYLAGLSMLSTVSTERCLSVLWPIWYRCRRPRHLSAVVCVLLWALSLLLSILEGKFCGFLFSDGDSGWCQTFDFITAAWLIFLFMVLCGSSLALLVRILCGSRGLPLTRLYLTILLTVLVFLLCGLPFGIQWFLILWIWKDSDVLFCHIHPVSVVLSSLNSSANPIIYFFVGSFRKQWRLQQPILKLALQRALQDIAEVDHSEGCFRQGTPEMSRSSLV
Description: (§1) Fig. 3 Biological characterization of PSB-172656. a Selectivity of PSB-172656 (100 nM) for MRGPRX2 over MRGPRX1, MRGPRX3, and MRGPRX4 measured in β-arrestin assays utilizing β-arrestin-CHO cells with recombinant expression of the respective receptor. MRGPRX1 was activated by BAM-22P (8.5 µM),[19] MRGPRX2 was activated by CST-14 (1 µM), MRGPRX3 was activated by PSB-20294 (10 µM), MRGPRX4 was activated by PSB-18061 (2.6 µM).[44] Data represent mean values ± SEM of 3-4 biological replicates, performed in duplicates. […] Data are means ± SEM of 3 biological replicates, in duplicates. Statistical significance was determined by one-way ANOVA (Tukey’s multiple comparison) test (ns P > 0.05). […] Data are means ± SEM of 3 biological replicates, performed in duplicates. e Shift assay to determine inhibition type of PSB-172656 versus CST-14. […] Extrapolated data were not used for analysis but only shown for a comprehensive view. f Schild plot for the effect of PSB-172656 on the concentration-response curves for CST-14. […]
(§2) To further investigate PSB-172656 signaling, direct activation of the relevant G protein subunits, Gαq and Gαi1,[32] was studied. This was assessed using G protein dissociation assays and LN229 cells stably overexpressing MRGPRX2 while transiently expressing the investigated G protein (Fig. 3c, d).[47]

mouse MRGPRB2 = target: T2, mouse MRGPRB2 (Mus musculus, UniProt Q3KNA1); design: method as in PMID 38184723; settings: cited from earlier work
T2 construct: expressed in transfected cells; host or cells: 1321N1 astrocytoma cells; plasmid pLVX-IRES-MRGPRB2-mCherry (Addgene #213961)
T2 sequence (Q3KNA1 1-338): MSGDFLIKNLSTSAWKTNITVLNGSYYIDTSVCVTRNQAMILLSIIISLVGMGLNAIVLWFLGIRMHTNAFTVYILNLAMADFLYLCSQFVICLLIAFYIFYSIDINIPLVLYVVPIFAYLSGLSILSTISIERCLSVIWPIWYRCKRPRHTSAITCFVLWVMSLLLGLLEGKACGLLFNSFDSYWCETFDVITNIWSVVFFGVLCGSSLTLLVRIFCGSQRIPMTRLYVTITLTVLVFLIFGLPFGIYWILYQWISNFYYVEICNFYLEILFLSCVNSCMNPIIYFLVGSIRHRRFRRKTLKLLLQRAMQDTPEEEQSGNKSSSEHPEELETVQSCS

MRGPRX2 [2] = target: T1, MRGPRX2; assay: β-arrestin recruitment assay (antagonist mode), β-arrestin-CHO cells recombinantly expressing MRGPRX2; format: cell-based; design: expressed in transfected cells
MRGPRX2 [3] = target: T1, MRGPRX2; assay: Ca2+ mobilization assay, LN229 cells overexpressing MRGPRX2; format: cell-based; design: expressed in transfected cells; host or cells: LN229 human glioblastoma cells; plasmid pLXSN-MRGPRX2 (Addgene #213960)
Description: Glioblastoma LN229-MRGPRX2 stably expressing MRGPRX2 (produced by retroviral transfection) were seeded into black sterile 96-well microplates at a density of 5 × 10^4 cells/well in 200 µL of DMEM/F12-Nut Mix medium, supplemented with 10% FCS, 100 U/mL of penicillin 100 µg/mL of streptomycin, and 200 µg/mL of G418 and incubated for 18–22 h.
The next day Fluo-4 AM Solution (1 mM) (Thermo Fisher Scientific) was prepared and used to prepare cell loading dye solution consisting of 4970 µL of Hank’s Buffered Saline Solution (HBSS) buffer, 15 µL of 20% Pluronic-F and 15 µL of 1 mM Fluo-4 AM. Next, the cell medium was removed and exchanged for 40 µL of dye solution per well (final concentration of Fluo-4 AM: 3 µM). The cell plate was incubated for 60 min in the dark at room temperature, then the dye solution was removed and replaced by 189 µL HBSS. Subsequently, 1 µL of antagonist diluted in DMSO was added and incubated for 30 min at room temperature and in the dark (final DMSO concentration 0.5%, v/v). CST-14 or another agonist prepared in HBSS as well as carbachol (final concentration 100 µM) were pipetted (10 µL) using a FlexStation® 3 Multi-Mode Microplate Reader. For the determination of baseline fluorescence, HBSS buffer containing solvent of the investigated compound was used. Fluorescence was measured for 120 intervals of 1 s (number of flashes: 10) at a wavelength of 525 nm (excitation 485 nm) using the SoftMax® Pro5.1 Microplate Data Acquisition & Analysis Software. Three independent experiments were performed in duplicates. Measurements are provided in relative fluorescence units and normalized to the maximal effect of CST-14.

MRGPRX2 [4] = target: T1, MRGPRX2; assay: TRUPATH Gαq dissociation assay, LN229 cells expressing MRGPRX2; format: cell-based; design: expressed in transfected cells; host or cells: LN229 human glioblastoma cells; plasmid pLXSN-MRGPRX2 (Addgene #213960); settings: read-out: EC50 of agonist, Gαq dissociation
Description: as §1, §2

Structure (SMILES): C[C@@H](O)[C@@H]1NC(=O)[C@H](CCCCN)NC(=O)[C@H](Cc2c[nH]c3ccccc23)NC(=O)[C@H](Cc2ccccc2)NC(=O)[C@H](Cc2ccccc2)NC(=O)[C@H](CC(N)=O)NC(=O)[C@H](CCCCN)NC(=O)[C@@H](NC(=O)[C@@H]2CCCN2)CSSC[C@@H](C(=O)N[C@@H](CCCCN)C(=O)O)NC(=O)[C@H](CO)NC(=O)[C@H](CO)NC(=O)[C@H](Cc2ccccc2)NC1=O [CST-14, reference compound] (H-PCKNFFWKTFSSCK-OH; disulfide 2-13; N-terminus and C-terminus assumed)
- EC50 (MRGPRX2 [1]): 0.113 ± 0.016 µM
- EC80 of agonist at MRGPRB2, Ca2+ assay (mouse MRGPRB2): 2 µM
- EC80 of agonist, β-arrestin assay (MRGPRX2 [2]): 1.0 µM
- EC50 (MRGPRX2 [2]; agonist concentration-response curve, read-out: EC50 of agonist, β-arrestin assay): 0.483 µM
- EC50 (MRGPRX2 [2]; without antagonist, read-out: EC50 of CST-14, shift assay): 0.283 ± 0.045 µM
- EC80 of agonist, Ca2+ assay (MRGPRX2 [3]): 0.8 µM
- EC50 (MRGPRX2 [3]; agonist concentration-response curve): 0.452 ± 0.049 µM
- EC50 (MRGPRX2 [4]): 0.499 ± 0.207 µM
